Assay [1] concerns the target dopamine D3 receptor (human D3 clone) (Homo sapiens, UniProt P35462). The assay is described as follows: Competitive binding at human D3 clone, [3H]domperidone.
Assay [2] concerns the target dopamine D2 receptor (D2^high / D2^low) (Rattus norvegicus, UniProt P61169). The assay is classed as binding.

Sequence of dopamine D2 receptor (D2^high / D2^low) (P61169 1-415 isoform P61169-2): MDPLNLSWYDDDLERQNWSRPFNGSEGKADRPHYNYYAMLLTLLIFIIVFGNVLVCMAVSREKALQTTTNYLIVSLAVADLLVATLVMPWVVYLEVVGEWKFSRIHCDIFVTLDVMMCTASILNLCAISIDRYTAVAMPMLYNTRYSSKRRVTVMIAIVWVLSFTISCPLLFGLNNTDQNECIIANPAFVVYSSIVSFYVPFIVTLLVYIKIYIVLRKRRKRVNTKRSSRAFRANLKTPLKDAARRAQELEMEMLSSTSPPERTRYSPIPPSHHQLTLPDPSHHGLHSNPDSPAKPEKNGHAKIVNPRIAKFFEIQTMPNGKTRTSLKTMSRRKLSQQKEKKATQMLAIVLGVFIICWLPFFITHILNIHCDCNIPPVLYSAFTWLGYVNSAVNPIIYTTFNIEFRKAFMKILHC
Sequence of dopamine D3 receptor (human D3 clone) (P35462 whole entry): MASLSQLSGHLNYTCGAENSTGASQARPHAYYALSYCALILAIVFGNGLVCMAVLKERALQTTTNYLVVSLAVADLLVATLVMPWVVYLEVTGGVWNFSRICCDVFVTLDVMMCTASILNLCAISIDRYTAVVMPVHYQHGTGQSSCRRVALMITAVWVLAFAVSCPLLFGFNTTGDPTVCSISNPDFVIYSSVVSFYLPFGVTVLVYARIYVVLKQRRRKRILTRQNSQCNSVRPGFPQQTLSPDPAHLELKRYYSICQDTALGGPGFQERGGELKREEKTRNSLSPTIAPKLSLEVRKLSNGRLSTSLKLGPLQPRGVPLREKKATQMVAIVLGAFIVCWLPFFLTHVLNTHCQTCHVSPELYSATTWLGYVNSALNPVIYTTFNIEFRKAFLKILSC

On to `CN1CCc2cc(OCCCF)cc3c2[C@H]1Cc1ccc(O)c(O)c1-3` [Compound 8e], for which the “Ki D3^high” value in assay [1] (high affinity state of D3) is reported as “did not exhibit any D3^high affinity”.
Regarding `CCN1CCc2cc(OCCCF)cc3c2[C@H]1Cc1ccc(O)c(O)c1-3` [Compound 8c, N-ethyl-2-fluoropropanoxy catechol-aporphine], in assay [2] (in comparison to 8a), the “fold increase in D2^high affinity” value is reported as roughly 4 fold.
For the compound `CCN1CCc2cc(OCCF)cc3c2[C@H]1Cc1ccc(O)c(O)c1-3` [Compound 8d], the “fold improvement in D2^high binding affinity” value in assay [2] (2-fluoroethoxy analog versus N-ethyl 2-fluoropropanoxy analog 8c) is given as “more than 2 fold”.
With `CN1CCc2cc(OCCF)cc3c2[C@H]1Cc1ccc(O)c(O)c1-3` [Compound 8f], in assay [1] (human D3 clone, SD), the “Ki D3 [3H]domperidone” value is listed as “no appreciable affinity to D3”.
